From US9980910B2, “Enteric-coated sodium metabisulfite livestock feed additive for vomitoxin detoxification” (priority 2010, dated 2018)

Legend:
[1] = test system: 25-50 lb pigs fed vomitoxin-contaminated corn; conditions: P<0.01
pigs [2] = conditions: cited from earlier work
pigs [3] = conditions: feeding to pigs; cited from earlier work
66-278 lbs pigs = test: Growth performance of 66-278 lbs pigs fed sodium metabisulfite in clean diets (F6_G07_01); type: in vivo; conditions: level increased from 0 to 0.5 to 1.0% in non-vomitoxin contaminated diets
Source text: The data presented in Table 2 confirms that toxic effects begin to occur between 0 and 0.5% sodium metabisulfite in the diet.

[4] = Destruction of vomitoxin by sodium metabisulfite in vitro at two pH levels
Procedure: Sodium metabisulfite was tested for its ability to destroy vomitoxin in vitro at different pH levels. […] For example, when tested at 10 lb/ton, sodium metabisulfite destroyed 70% of the measurable vomitoxin at pH 6.5, but none at pH 3.0. At 20 lbs/ton sodium metabisulfite destroyed over 97% of the vomitoxin at pH 6.5 but only 41% at pH 3.0. Destruction levels less than 10% are considered to be random variation in this assay and not related to treatment. […] Although the levels of sodium metabisulfite required to destroy vomitoxin in this in vitro assay are higher than the “safe” level of 0.35% determined in a previous referenced feeding trial in pigs, other studies (Tables 1 and 3) clearly show positive effects of sodium metabisulfite at levels of 0.125 to 0.25% in vomitoxin-contaminated diets.

[5] = diet containing approximately 5 ppm vomitoxin, 25-55 lb pigs
[6] = vomitoxin-contaminated diet, 5 to 20 lbs/ton of diet (0.25 to 1.0%)

SMILES	Reduction of daily feed intake [1, 5] [%]	Reduction of growth rate [1, 5] [%]	Vomitoxin level resulting in complete feed refusal, vomiting, immune suppression, and gastrointestinal lesions (pigs [2])	Average daily feed intake (ADFI) (effect in words) [1, 6]	Average daily gain (ADG) (effect in words) [1, 6]	"no-effect" level (no toxic effects) (pigs [3])	Average daily feed intake (effect in words) (66-278 lbs pigs)	% destruction of vomitoxin ([4]; pH 3.0, metabisulfite 2.5 lbs/ton) [%]	% destruction of vomitoxin ([4]; pH 3.0, metabisulfite 5 lbs/ton) [%]	% destruction of vomitoxin ([4]; pH 3.0, metabisulfite 20 lbs/ton) [%]	% destruction of vomitoxin ([4]; pH 6.5, metabisulfite 2.5 lbs/ton) [%]	% destruction of vomitoxin ([4]; pH 6.5, metabisulfite 5 lbs/ton) [%]	% destruction of vomitoxin ([4]; pH 6.5, metabisulfite 10 lbs/ton) [%]
CC1=C[C@H]2O[C@@H]3[C@H](O)C[C@](C)([C@@]2(CO)[C@H](O)C1=O)[C@]31CO1 [Vomitoxin, deoxynivalenol]	20	15	above 5 ppm	–	–	–	–	–	–	–	–	–	–
O=S([O-])S(=O)(=O)[O-].[Na+].[Na+] [sodium metabisulfite, Sodium metabisulfite]	–	–	–	improves	improves	0.35 % of the diet	linearly reduced	4.2	0.9	41	0.0	0.0	70
